According to patent US8415469B2, “Compounds and methods for kinase modulation, and indications therefor” (Plexxikon Inc., priority 2005, dated 2013):
pIC50: −log10 of the molar value.

What was measured:
Type in all cases: biochemical
Fak = target: T1, Fak (Homo sapiens, UniProt Q05397); experiment: AlphaScreen kinase assay, Fak; conditions: read-out: IC50, activity toward kinase Fak
T1 construct: P1358.pFastBacHtb FAK S411-Q686-X; His6 with pFastBacHTb leader (TEV site) (N); made in house; host or cells: Sf9 (baculovirus)
T1 sequence (Q05397 411-686): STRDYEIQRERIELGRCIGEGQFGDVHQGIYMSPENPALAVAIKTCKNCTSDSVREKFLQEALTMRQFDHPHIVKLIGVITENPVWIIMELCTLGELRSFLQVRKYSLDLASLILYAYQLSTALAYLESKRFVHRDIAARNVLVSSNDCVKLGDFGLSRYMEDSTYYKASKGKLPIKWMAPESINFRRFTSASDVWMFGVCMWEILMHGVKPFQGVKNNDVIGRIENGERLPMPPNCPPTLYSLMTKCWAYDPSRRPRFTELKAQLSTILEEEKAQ

FGFR1 = target: T2, FGFR1 (Homo sapiens, UniProt P11362, C488A/C584S); experiment: AlphaScreen kinase assay, FGFR1; conditions: read-out: IC50, activity toward kinase FGFR
T2 construct: P1351.pET N6 BI-PTP FGFR A458-E765-X C488A, C584S; made in house; host or cells: E. coli (PTP1B co-expressed)
T2 sequence (P11362 458-765 C488A/C584S): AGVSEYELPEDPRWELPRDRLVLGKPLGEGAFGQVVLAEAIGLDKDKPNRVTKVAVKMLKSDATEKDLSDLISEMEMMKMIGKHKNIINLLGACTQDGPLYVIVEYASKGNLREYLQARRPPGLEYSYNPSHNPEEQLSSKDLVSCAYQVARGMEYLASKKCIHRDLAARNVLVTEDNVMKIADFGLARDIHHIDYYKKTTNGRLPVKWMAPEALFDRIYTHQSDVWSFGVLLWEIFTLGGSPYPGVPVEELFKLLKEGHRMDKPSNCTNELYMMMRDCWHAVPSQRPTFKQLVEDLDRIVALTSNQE

Src = target: T3, Src (Homo sapiens, UniProt P12931); experiment: AlphaScreen kinase assay, Src; conditions: read-out: IC50, activity toward kinase Src
T3 construct: P1144. pET-N6 BI-PTP SRC V86-L536-X; made in house
T3 sequence (P12931 with tags, fused parts or gaps): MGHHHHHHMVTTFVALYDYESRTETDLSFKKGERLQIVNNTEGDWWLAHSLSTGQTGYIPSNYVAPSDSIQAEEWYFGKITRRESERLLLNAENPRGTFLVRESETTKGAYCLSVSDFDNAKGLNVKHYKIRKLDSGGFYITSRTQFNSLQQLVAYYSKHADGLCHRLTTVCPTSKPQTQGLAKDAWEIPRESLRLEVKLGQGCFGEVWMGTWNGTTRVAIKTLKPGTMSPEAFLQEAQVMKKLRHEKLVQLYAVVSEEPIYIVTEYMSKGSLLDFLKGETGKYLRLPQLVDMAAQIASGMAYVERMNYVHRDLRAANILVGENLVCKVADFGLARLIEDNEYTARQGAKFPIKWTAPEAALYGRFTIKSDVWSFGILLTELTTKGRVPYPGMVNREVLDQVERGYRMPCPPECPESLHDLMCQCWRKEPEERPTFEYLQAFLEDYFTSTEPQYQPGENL

B-Raf V600E = target: T4, B-Raf V600E (Homo sapiens, UniProt P15056, V600E); experiment: AlphaScreen kinase assay, B-Raf V600E; conditions: read-out: IC50, activity toward kinase B-Raf V600E
T4 construct: P4254. pFastBacBD-CDC37 BRAF D437-K722-X, V600E; His6 with pFastBac HT leader (TEV site) (N); made in house; host or cells: Sf9 (baculovirus; chaperone CDC37 co-expressed)
T4 sequence (P15056 with tags, fused parts or gaps V600E): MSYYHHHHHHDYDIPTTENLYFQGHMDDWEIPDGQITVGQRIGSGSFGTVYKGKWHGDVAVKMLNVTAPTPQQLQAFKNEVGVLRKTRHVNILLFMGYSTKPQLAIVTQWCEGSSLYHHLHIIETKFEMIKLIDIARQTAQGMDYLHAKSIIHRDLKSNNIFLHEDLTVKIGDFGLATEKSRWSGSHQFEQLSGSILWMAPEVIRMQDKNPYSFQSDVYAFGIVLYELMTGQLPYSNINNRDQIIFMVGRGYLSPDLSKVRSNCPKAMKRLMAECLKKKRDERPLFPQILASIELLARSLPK

c-Raf-1 = target: T5, c-Raf-1 (Homo sapiens, UniProt P04049); experiment: AlphaScreen kinase assay, c-Raf-1; conditions: read-out: IC50, activity toward kinase c-Raf-1
T5 construct: purchased Upstate Biotechnology
T5 sequence (P04049 whole entry): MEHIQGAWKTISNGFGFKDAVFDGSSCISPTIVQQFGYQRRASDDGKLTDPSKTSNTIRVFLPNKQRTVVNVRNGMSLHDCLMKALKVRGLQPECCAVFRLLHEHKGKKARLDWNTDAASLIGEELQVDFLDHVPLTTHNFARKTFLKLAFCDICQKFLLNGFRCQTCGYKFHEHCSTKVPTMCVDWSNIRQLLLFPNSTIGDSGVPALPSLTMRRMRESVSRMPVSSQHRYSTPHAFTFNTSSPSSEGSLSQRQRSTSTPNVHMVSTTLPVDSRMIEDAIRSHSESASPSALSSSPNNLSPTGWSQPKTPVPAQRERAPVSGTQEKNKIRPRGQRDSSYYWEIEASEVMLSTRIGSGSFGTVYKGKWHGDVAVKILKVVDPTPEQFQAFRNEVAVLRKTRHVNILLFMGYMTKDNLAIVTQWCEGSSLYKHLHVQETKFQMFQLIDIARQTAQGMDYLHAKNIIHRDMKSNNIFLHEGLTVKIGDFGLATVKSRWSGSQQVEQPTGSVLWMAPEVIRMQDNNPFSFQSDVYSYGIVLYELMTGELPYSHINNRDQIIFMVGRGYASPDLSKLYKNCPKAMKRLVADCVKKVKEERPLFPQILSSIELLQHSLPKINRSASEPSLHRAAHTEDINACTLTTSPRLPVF

B-Raf = target: T6, B-Raf (Homo sapiens, UniProt P15056); experiment: AlphaScreen kinase assay, B-Raf; conditions: read-out: IC50, activity toward kinase B-Raf
T6 construct: purchased Upstate Biotechnology
T6 sequence (P15056 whole entry): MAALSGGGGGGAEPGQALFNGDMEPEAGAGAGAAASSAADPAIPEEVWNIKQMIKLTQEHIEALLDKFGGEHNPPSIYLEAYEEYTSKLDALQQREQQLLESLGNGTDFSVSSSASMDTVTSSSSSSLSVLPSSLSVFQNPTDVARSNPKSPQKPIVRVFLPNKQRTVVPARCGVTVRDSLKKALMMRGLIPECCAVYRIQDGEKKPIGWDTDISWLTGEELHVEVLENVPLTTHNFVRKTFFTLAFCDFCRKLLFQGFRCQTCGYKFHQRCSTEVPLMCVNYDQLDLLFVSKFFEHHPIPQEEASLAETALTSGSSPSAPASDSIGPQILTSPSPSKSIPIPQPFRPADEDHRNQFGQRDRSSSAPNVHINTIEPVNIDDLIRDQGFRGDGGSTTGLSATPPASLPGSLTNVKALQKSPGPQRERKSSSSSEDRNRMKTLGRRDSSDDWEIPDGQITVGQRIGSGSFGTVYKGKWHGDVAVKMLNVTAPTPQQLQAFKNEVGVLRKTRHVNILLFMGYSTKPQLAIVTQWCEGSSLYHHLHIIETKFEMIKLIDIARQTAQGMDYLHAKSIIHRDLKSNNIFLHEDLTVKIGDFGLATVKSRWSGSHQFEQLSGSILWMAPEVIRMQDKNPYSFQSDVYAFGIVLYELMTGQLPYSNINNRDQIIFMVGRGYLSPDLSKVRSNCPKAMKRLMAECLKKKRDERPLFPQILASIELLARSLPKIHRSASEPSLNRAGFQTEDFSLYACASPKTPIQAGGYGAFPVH

Kit = target: T7, Kit (Homo sapiens, UniProt P10721); experiment: AlphaScreen kinase assay, Kit; conditions: read-out: IC50, activity toward kinase Kit
T7 construct: P1332.N6 BI PTP KIT M552-K948-X COD; His6 (N); made in house; host or cells: E. coli (PTP1B co-expressed)
T7 sequence (P10721 with tags, fused parts or gaps): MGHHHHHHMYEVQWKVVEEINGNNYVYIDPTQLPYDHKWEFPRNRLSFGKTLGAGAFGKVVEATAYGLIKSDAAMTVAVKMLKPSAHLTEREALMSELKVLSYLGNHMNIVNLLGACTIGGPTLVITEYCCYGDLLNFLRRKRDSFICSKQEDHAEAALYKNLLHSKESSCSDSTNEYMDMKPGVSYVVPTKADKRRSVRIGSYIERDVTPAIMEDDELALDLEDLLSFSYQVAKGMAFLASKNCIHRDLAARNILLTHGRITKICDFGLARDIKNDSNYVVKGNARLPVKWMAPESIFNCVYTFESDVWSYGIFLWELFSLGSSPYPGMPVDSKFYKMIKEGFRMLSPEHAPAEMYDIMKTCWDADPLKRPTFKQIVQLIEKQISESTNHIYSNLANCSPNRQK

Fms = target: T8, Fms (Homo sapiens, UniProt P07333); experiment: AlphaScreen kinase assay, Fms; conditions: read-out: IC50, activity toward kinase Fms
T8 construct: purchased Upstate Biotechnology
T8 sequence (P07333 20-972): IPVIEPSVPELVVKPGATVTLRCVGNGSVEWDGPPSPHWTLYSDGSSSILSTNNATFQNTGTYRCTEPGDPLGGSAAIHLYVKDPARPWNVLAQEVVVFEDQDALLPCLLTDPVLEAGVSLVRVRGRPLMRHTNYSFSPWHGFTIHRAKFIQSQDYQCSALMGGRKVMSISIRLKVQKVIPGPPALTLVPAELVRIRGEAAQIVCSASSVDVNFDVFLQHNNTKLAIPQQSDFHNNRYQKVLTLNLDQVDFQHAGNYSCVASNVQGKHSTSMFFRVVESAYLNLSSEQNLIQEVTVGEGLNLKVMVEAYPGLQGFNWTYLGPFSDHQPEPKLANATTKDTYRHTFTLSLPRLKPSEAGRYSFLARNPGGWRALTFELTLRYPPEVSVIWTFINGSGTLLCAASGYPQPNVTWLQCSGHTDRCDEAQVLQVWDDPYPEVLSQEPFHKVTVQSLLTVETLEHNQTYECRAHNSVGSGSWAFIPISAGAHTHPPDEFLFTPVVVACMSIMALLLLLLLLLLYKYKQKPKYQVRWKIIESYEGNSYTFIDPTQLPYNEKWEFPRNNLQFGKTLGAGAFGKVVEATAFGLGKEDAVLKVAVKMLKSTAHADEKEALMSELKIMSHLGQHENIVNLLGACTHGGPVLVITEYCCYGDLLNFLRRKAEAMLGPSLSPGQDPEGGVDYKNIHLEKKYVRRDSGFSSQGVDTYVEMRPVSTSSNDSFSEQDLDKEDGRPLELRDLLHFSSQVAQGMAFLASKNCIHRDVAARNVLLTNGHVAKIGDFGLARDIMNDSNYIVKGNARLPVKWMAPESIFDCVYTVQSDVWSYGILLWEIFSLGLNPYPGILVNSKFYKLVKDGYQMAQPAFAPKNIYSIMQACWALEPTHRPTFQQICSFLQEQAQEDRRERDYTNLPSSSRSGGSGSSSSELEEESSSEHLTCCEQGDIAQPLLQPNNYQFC

Flt1 = target: T9, Flt1 (Homo sapiens, UniProt P17948); experiment: AlphaScreen kinase assay, Flt1; conditions: read-out: IC50, activity toward kinase Flt1
T9 construct: P1826.pETN6 BI-PTP FLT1 M799-D1165-X WT; His6 (N); made in house; host or cells: E. coli (PTP1B co-expressed)
T9 sequence (P17948 with tags, fused parts or gaps): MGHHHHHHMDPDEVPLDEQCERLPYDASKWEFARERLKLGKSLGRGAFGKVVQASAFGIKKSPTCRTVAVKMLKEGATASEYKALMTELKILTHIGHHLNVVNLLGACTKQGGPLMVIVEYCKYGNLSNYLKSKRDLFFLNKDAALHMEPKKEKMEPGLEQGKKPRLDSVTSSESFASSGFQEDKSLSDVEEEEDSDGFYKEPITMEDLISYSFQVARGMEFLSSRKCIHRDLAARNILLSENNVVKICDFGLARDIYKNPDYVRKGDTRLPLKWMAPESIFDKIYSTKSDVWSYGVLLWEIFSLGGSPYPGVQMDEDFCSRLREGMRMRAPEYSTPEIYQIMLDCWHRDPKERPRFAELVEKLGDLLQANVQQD

Jnk1 = target: T10, Jnk1 (Homo sapiens, UniProt P45983); experiment: AlphaScreen kinase assay, Jnk1; conditions: read-out: IC50, activity toward kinase Jnk1
T10 construct: purchased Upstate Biotechnology
T10 sequence (P45983 whole entry): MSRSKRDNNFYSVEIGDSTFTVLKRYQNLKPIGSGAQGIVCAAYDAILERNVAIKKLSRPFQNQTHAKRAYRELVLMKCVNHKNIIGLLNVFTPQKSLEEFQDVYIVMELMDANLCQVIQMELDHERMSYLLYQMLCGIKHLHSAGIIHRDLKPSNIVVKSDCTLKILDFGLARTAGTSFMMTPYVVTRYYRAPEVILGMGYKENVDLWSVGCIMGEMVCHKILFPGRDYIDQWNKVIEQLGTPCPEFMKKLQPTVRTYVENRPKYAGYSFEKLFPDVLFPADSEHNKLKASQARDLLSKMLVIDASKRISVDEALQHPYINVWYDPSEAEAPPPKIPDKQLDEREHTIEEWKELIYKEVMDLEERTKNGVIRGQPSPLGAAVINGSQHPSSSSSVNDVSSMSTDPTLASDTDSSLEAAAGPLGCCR

Jnk3 = target: T11, Jnk3 (Homo sapiens, UniProt P53779); experiment: AlphaScreen kinase assay, Jnk3; conditions: read-out: IC50, activity toward kinase Jnk3
T11 construct: purchased Upstate Biotechnology

Measured: pIC50

CCCS(=O)(=O)Nc1ccc(F)c(C(=O)c2c[nH]c3ncc(-c4ccc(N(C)C)cc4)cc23)c1F [Compound P-0889, Propane-1-sulfonic acid {3-[5-(4-dimethylamino-phenyl)-1H-pyrrolo[2,3-b]pyridine-3-carbonyl]-2,4-difluoro-phenyl}-amide]
not listed: Fms | Flt1 | Jnk1 | Jnk3
≥ 5.00: all other assays above

CCCS(=O)(=O)Nc1ccc(F)c(C(=O)c2c[nH]c3ncc(C)cc23)c1F [Compound P-1249]
not listed: Flt1 | Jnk1 | Jnk3
≥ 5.00: all other assays above

CCCCS(=O)(=O)Nc1cccc(C(=O)c2c[nH]c3ncc(Cl)cc23)c1F [Compound P-1250, Butane-1-sulfonic acid [3-(5-chloro-1H-pyrrolo[2,3-b]pyridine-3-carbonyl)-2-fluoro-phenyl]-amide]
not listed: Jnk1 | Jnk3
≥ 5.00: all other assays above

O=C(c1cccc(NS(=O)(=O)c2ccccc2)c1F)c1c[nH]c2ncc(Cl)cc12 [Compound P-1255, N-[3-(5-chloro-1H-pyrrolo[2,3-b]pyridine-3-carbonyl)-2-fluoro-phenyl]benzenesulfonamide]
not listed: Jnk1 | Jnk3
≥ 5.00: all other assays above

CCCS(=O)(=O)Nc1cccc(C(=O)c2c[nH]c3ncc(OC)cc23)c1F [Compound P-1256, Propane-1-sulfonic acid [2-fluoro-3-(5-methoxy-1H-pyrrolo[2,3-b]pyridine-3-carbonyl)-phenyl]-amide]
not listed: Fms | Jnk3
≥ 5.00: all other assays above

COc1ccc(F)c(C(=O)c2c[nH]c3ncc(-c4ccccc4)cc23)c1F [Compound P-1387, (2,6-Difluoro-3-methoxy-phenyl)-(5-phenyl-1H-pyrrolo[2,3-b]pyridin-3-yl)-methanone]
not listed: Flt1 | Jnk1 | Jnk3
≥ 5.00: all other assays above

COc1ccc(F)c(C(=O)c2c[nH]c3ncc(-c4cccc(NS(C)(=O)=O)c4)cc23)c1F [Compound P-1391, N-{3-[3-(2,6-Difluoro-3-methoxy-benzoyl)-1H-pyrrolo[2,3-b]pyridin-5-yl]-phenyl}-methanesulfonamide]
not listed: Flt1 | Jnk1 | Jnk3
≥ 5.00: all other assays above

CCCS(=O)(=O)Nc1ccc(F)c(Cc2c[nH]c3ncc(Cl)cc23)c1F [Compound P-1396]
≥ 5.00: Fak | FGFR1 | Src | B-Raf V600E | c-Raf-1 | Kit

CCCS(=O)(=O)Nc1ccc(F)c(Cc2c[nH]c3ncc(-c4cccnc4)cc23)c1F [Compound P-1397]
not listed: Flt1 | Jnk1 | Jnk3
≥ 5.00: all other assays above

CCCS(=O)(=O)Nc1ccc(F)c(C(=O)c2c[nH]c3ncc(Br)cc23)c1 [Compound P-1403, Propane-1-sulfonic acid [3-(5-bromo-1H-pyrrolo[2,3-b]pyridine-3-carbonyl)-4-fluoro-phenyl]-amide]
not listed: B-Raf | Jnk1 | Jnk3
≥ 5.00: all other assays above

CCCS(=O)(=O)Nc1ccc(F)c(C(=O)c2c[nH]c3ncc(OC)cc23)c1 [Compound P-1433]
not listed: Jnk3
≥ 5.00: all other assays above

O=C(Nc1cccc(Cc2c[nH]c3ncc(-c4cccnc4)cc23)c1)NC1CCCC1 [Compound P-1446, 1-Cyclopentyl-3-[3-(5-pyridin-3-yl-1H-pyrrolo[2,3-b]pyridin-3-ylmethyl)-phenyl]-urea]
not listed: c-Raf-1 | Fms | Jnk3
≥ 5.00: all other assays above

O=C(Nc1ccc(F)c(C(O)c2c[nH]c3ncc(Br)cc23)c1F)OCc1ccccc1 (stereo not drawn) [Compound P-1451]
not listed: Flt1 | Jnk1 | Jnk3
≥ 5.00: all other assays above

O=C(Nc1ccc(F)c(C(=O)c2c[nH]c3ncc(Br)cc23)c1F)OCc1ccccc1 [Compound P-1457]
not listed: FGFR1 | c-Raf-1 | Jnk1 | Jnk3
≥ 5.00: all other assays above

Fc1cccc(F)c1Cc1c[nH]c2ncc(-c3cccnc3)cc12 [Compound P-1477, 3-(2,6-Difluoro-benzyl)-5-pyridin-3-yl-1H-pyrrolo[2,3-b]pyridine]
not listed: c-Raf-1 | Kit | Flt1 | Jnk1
≥ 5.00: all other assays above
